Data as given in PubChem BioAssay (NCI).
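Following 48 hours of exposure in 96-well plates, responses at five concentrations were used to interpolate endpoints linearly. The concentration for full growth arrest is given as TGI.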 Where a SMILES comes first, the peptide text is derived from it. [ ]: non-standard residue; d: D form. The star is where a group is joined. ξ: configuration not given here. Cbz = O=C(OCc1ccccc1)*; ξK = NCCCCC(N)C(=O)O

How the values were obtained:
Experiment in all cases: NCI tumour cell line growth inhibition, 48 h
[1] = tested on: SR leukemia
[2] = tested on: SK-MEL-2 melanoma
[3] = tested on: MALME-3M melanoma
[4] = tested on: T-47D breast
[5] = tested on: CAKI-1 renal
[6] = tested on: IGROV1 ovarian
[7] = tested on: SF-268 CNS
[8] = tested on: HT29 colon
[9] = tested on: HS 578T breast
[10] = tested on: A549 NSCLC
[11] = tested on: SK-MEL-5 melanoma
[12] = tested on: M14 melanoma
[13] = tested on: RPMI-8226 leukemia
[14] = tested on: OVCAR-3 ovarian
[15] = tested on: KM12 colon
[16] = tested on: NCI-H460 lung
[17] = tested on: ACHN renal
[18] = tested on: OVCAR-4 ovarian
[19] = tested on: CCRF-CEM leukemia
[20] = tested on: HCT-116 colon
[21] = tested on: NCI-H23 lung
[22] = tested on: MCF7 breast
[23] = tested on: COLO 205 colon
[24] = tested on: MDA-N
[25] = tested on: 786-0 renal
[26] = tested on: RXF 393 renal
[27] = tested on: SNB-75 CNS
[28] = tested on: PC-3 prostate
[29] = tested on: UO-31 renal
[30] = tested on: SW-620 colon
[31] = tested on: HOP-92 NSCLC
[32] = tested on: MDA-MB-435
[33] = tested on: UACC-257 melanoma
[34] = tested on: NCI-H522 lung
[35] = tested on: HCT-15 colon
[36] = tested on: SN12C renal
[37] = tested on: MDA-MB-231 breast
[38] = tested on: MOLT-4 leukemia
[39] = tested on: SK-OV-3 ovarian
[40] = tested on: OVCAR-8 ovarian
[41] = tested on: SF-295 CNS
[42] = tested on: A498 renal
[43] = tested on: OVCAR-5 ovarian
[44] = tested on: K-562 leukemia
[45] = tested on: UACC-62 melanoma
[46] = tested on: DU-145 prostate
[47] = tested on: EKVX NSCLC
[48] = tested on: HOP-62 NSCLC
[49] = tested on: SF-539 CNS
[50] = tested on: LOX IMVI melanoma
[51] = tested on: SNB-19 CNS
[52] = tested on: NCI/ADR-RES ovarian
[53] = tested on: NCI-H226 lung
[54] = tested on: HCC-2998 colon
[55] = tested on: U251 CNS
[56] = tested on: SK-MEL-28 melanoma

Measured: TGI

NCCCCC(NC(=O)OCc1ccccc1)C(=O)NCC(N)=O (stereo unspecified) (Cbz-[ξK]-Gly-NH2)
> 100 µM: all assays above
